Measured values from patent publication US6106864A, “Pharmaceutical formulations containing darifenacin” (Pfizer Inc., priority 1995, dated 2000).

Test system: muscarinic M3 receptors over M1 receptors
Assay: Selectivity for muscarinic M3 receptors over M1 receptors
Conditions: metabolite compared with darifenacin; "It appears"

For `NC(=O)C(c1ccccc1)(c1ccccc1)[C@@H]1CCN(CCc2ccc3c(c2)C(O)CO3)C1` (stereo partly shown) [metabolite], the “less selective for muscarinic M3 receptors over M1 receptors in comparison with darifenacin” value was 6 fold.
